Source: US20140364368A1, “STIMULUS RESPONSIVE NANOCOMPLEXES AND METHODS OF USE THEREOF” (MASSACHUSETTS INSTITUTE OF TECHNOLOGY, priority 2013, published 2014)

Key:
[1] = system: thromboplastin-induced model of pulmonary thromboembolism; assay: thromboplastin-induced model of pulmonary thromboembolism; assay type: in vivo; conditions: mice
Description: To evaluate the ability of nanocomplexes to prevent thrombosis in vivo, a thromboplastin-induced model of pulmonary thromboembolism was utilized. […] For the pulmonary embolism assay, bovine fibrinogen (Sigma) was reacted with near-infrared fluorochromes (Vivotag-750-NHS, Perkin-Elmer) at a 2:1 fluorophore:protein molar ratio in PBS for 1 hour and purified by column centrifugation (100 kDa cutoff, Millipore) to remove unreacted fluorophores. Ampules of thromboplastin from rabbit brain (Sigma, #44213) were reconstituted with 2 mL of PBS each.
To ascertain the initial dosing ranges for the nanocomplexes, mice were dosed with thromboplastin and escalating doses of free heparin (40 U/kg, 100 U/kg and 200 U/kg heparin). Deposition of VT750-fibrin in the lungs of the mice was quantified using ex vivo infrared imaging. […] Accordingly, the dose of nanocomplexes corresponding to heparin doses of 200 U/kg was chosen for subsequent experiments.
Mice (n=5 per condition) were anesthetized with isofluorane gas and co-administered nanocomplexes (200 U/kg), free heparin (200 U/kg), or PBS control and 1 nmol of VT750-fibrinogen via tail vein injection. After 5 minutes, mice were injected with thromboplastin (2 uL/g). After 30 minutes, mice were euthanized with CO2 and the lungs were harvested and imaged on the LI-COR Odyssey Infrared Imaging System. Fibrin deposition was then quantified using ImageJ software. For histologic analysis, paraffin-embedded sections of lungs were prepared (Koch Institute Histology Core). Lungs were first fixed by incubating in 4% paraformaldehyde overnight. Hematoxylin and eosin […] staining of lung sections was used to visualize clots in the lungs.

[2] = system: normal human control plasma; assay: activated partial thromboplastin time (aPTT) clotting assay
Description: The effect of the nanocomplexes on a physiologic coagulation pathway was tested using a standard activated partial thromboplastin time (aPTT) clotting assay, which is also used to monitor heparin levels of patients. This assay measures the amount of time needed for a plasma sample to form a clot in vitro when the contact pathway of coagulation is triggered by addition of an exogenous aPTT reagent. For the assay, varying concentrations of nanocomplexes or free heparin were added to 50 μl of APTT reagent (Thermo Scientific) at 37° C. for 3 minutes. Subsequently, 50 μl of 25 mM CaCl2 (Sigma) pre-incubated at 37° C. were added to samples and clotting was monitored via absorbance at 605 nm with a SpectraMAX Plus spectrophotometer ([…]).

[3] = system: thrombin generation in human plasma; assay: real-time thrombin generation assay in human plasma
Description: To further analyze the anticoagulant mechanism of the nanocomplexes, we performed real-time thrombin generation assays in human plasma. For this assay, varying concentrations of nanocomplexes or free heparin were added to 20 μL of control normal human plasma (Thermo Scientific). Real time thrombin generation was measured using the Technothrombin TGA kit (Technoclone) using the RD reagent according to manufacturer instructions. The fluorescence was monitored using a TECAN Infinite M200 Pro and thrombin generation was calculated using the corresponding Excel evaluation software provided by Technoclone.

mice = assay: Tail bleeding time after tail transection; assay type: in vivo; conditions: 200 U/kg intravenously
Description: To assess the effect of nanocomplex administration on bleeding tail transection on mice was performed five minutes after they were treated intravenously with nanocomplexes. Specifically, mice (n=5-7 per condition) were anesthetized with isofluorane gas and administered nanocomplexes (200 U/kg, n=5), heparin (200 U/kg, n=7), or PBS control (n=5). After 5 minutes, 2 mm of distal mouse tail was removed by scalpel. Bleeding time was determined by lightly dabbing the tail with kimwipe tissues (Kimtech) until bleeding fully ceased for at least 1 minute. All experimental protocols involving animals were approved by the MIT Committee on Animal Care.

heparin [free heparin]
VT750-fibrin deposition in the lungs ([1]; 40 U/kg, with thromboplastin): did not significantly reduce
VT750-fibrin deposition in the lungs ([1]; 100 U/kg, with thromboplastin): did not significantly reduce
histological analysis of lung microvessels (hematoxylin and eosin) ([1]; 200 U/kg, thromboplastin 2 uL/g): largely patent
reduction of VT750-fibrin deposition in the lungs ([1]; 200 U/kg, with thromboplastin): more than two-fold
aPTT clotting time ([2]; 0.4 U/mL): ~44 s
aPTT clotting time relative to control ([2]; 0.4 U/mL): ~1.5 × of control
aPTT clotting time ([2]; 0.8 U/mL): ~44 s
aPTT clotting time relative to control ([2]; 0.8 U/mL): ~1.5 fold over control
aPTT clotting time ([2]; 2 U/mL): ~136 s
aPTT clotting time relative to control ([2]; 2 U/mL): ~5 fold over control
aPTT clotting time relative to control ([2]; 2 U/mL, listed as heparin): ~5 x of control
reduction of ETP ([3]; 1.6 U/mL): ~80%
lag time (time to initial thrombin formation) ([3]; increasing concentrations): prolonged in a dose-dependent manner
increase of mean bleeding time over PBS control (mice): greater than 280%
mean bleeding time (mice; tail transection after 5 minutes): ~9.2 min
